Assays:
[1] = target: human emopamil binding protein and human 7-dehydrocholesterol reductase co-expressing cells (hEBP-DHCR7 membrane) (Homo sapiens (Human), UniProt Q15125); experiment: Radioligand filter binding assay on hEBP-DHCR7 membrane; settings: [3H]-(S)-6-(2-Methyl-3-(6-(trifluoromethyl)pyridin-3-yl)propyl)-2-thia-6-azaspiro[3.4]octane 2,2-dioxide radioligand, HEK293 membrane co-expressing hEBP and hDHCR7
Method: Membrane Preparation: human emopamil binding protein and human 7-dehydrocholesterol reductase co-expressing cells were generated by transient transfecting host human embryonic kidney (HEK) 293 cells with 2 DNA constructs containing each protein's coding sequence. Cells were suspension cultured at 37° C. with 5% CO2 in […] 293 Expression Medium (Thermofisher). Whole cell membrane was prepared by harvesting the cell pellet, adding cold membrane buffer (50 mM Tris, pH7.5, lx Roche COMPLETE EDTA-free protease inhibitor cocktail) 10 times volume of the cell pellets weight, lysing cell pellet on ice by using Dounce homogenizer, spinning at 200 g 4° C. for 15 min, collecting supernatant and spinning again at 25000 g 4° C. for 50 min, transferring pellet to Dounce homogenizer, re-suspending pellet by homogenizing in membrane buffer on ice to reach ˜25 mg/mL, then keeping whole cell membrane aliquots at −80° C.
Compounds were prepared in a 96-well U bottom plate using an Echo550 machine and 10 mM compound DMSO stock solution, followed by an 8-dose 5-fold serial dilutions protocol with final testing compound concentration ranging from 0.06 to 5000 nM, with DMSO back fill to 100 nL/well and n=2. […] The UniFilter-96 GF/B plates were pre-treated by adding 50 μl/well of 0.3% (v/v) PEI to UniFilter-96 GF/B plates. The plates were sealed and incubated at 4° C. for 3 hrs. Then, the plates were washed with ice-cold assay buffer 3 times. The radioligand binding assay was prepared by adding assay buffer diluted hEBP-DHCR7 membrane at 66.7 μg/ml×150 μl/well into the 96-well compound plate to reach 10 μg membrane per well. Then, the assay buffer diluted [3H]—(S)-6-(2-Methyl-3-(6-(trifluoromethyl)pyridin-3-yl)propyl)-2-thia-6-azaspiro[3.4] octane 2,2-dioxide was added at 25 nM×50 μl/well. Following this, the plate was centrifuged at 1000 rpm for 30 secs. The plate was then sealed and agitated at 600 rpm at 22° C. for 5 min, and then incubated at 22° C. for 3 hrs. The incubation was stopped by transferring the binding solution to the pre-treated UniFilter-96 GF/B plate, vacuum filtrated, and then washed four times with ice-cold assay buffer. Following this, the plates were dried at 37° C. for 45 min. The plates were then sealed at the bottom. 40 μl/well of scintillation cocktail was added to the plates. A MicroBeta2 microplate counter was then used to read the plate and analyze the data. For reference and test compounds, the results are expressed as % Inhibition, using the normalization equation: N=100−100×(U−C2)/(C1−C2), where U is the unknown value, C1 is the average of high controls, and C2 is the average value of low controls. The IC50 was determined by fitting percentage of inhibition as a function of compound concentrations with Hill equation using XLfit. Results are expressed as hEBP-DHCR7 Ki (uM) in Table 4. Ki was calculated as described above. The asterix (*) indicates an isolated isomer or isolated group of isomers, but that the stereochemistry has not been assigned.

[2] = test system: EBP (zymostenol accumulation in EpiSC-derived OPCs); experiment: GC/MS-based sterol profiling, zymostenol accumulation in OPCs; assay type: cell-based, mouse; settings: Mus musculus, 24 h, EpiSC-derived OPCs, 24 hr treatment, 8 doses from 0.15 nM to 333 nM; read-out: Zymostenol GCMS EC50
Method: To assess effects of treatments on OPCs, all treatments were assayed in two or more independent platings of epiblast stem cell-derived OPCs ([…]-derived OPCs were obtained using in vitro differentiation protocols and culture conditions described previously (Najm et al, 2011, Nature Methods). OPCs were expanded and frozen down in aliquots. OPCs were thawed into growth conditions for at least one passage before use in further assays. Sterols were monitored using a modified Folch wash protocol (Hubler et al, 2018, Nature). EpiSC-derived OPCs were plated at 100,000 cells per well in PO- and laminin-coated 96-well plates in N2B27 media without growth factors. After 24 hours, cells were rinsed with saline and plates were frozen. Cholesterol-d7 standard was then added to each well before drying under nitrogen stream and derivatization with 55 μl of bis(trimethylsilyl) trifluoroacetamide. After derivatization, 2 μl were analyzed by gas chromatography/mass spectrometry using an Agilent 5973 Network Mass Selective Detector equipped with a 6890 gas chromatograph system and a HP-5MS capillary column (30 m×0.25 mm×0.25 mm). Samples were analyzed in full scan mode using electron impact ionization; ion fragment peaks were integrated to calculate sterol abundance, and quantitation was relative to cholesterol-d7. […] All standards were obtained from Avanti Polar Lipids unless otherwise indicated. Calibration curves were generated by injecting varying concentrations of sterol standards and maintaining a fixed amount of cholesterol-D7. For normalized zymostenol accumulation results, the total amount of zymostenol measured after drug treatment was divided by the total amount of zymostenol accumulated after 24 hr treatment with 100 nM positive control reference.

Chain of human emopamil binding protein and human 7-dehydrocholesterol reductase co-expressing cells (hEBP-DHCR7 membrane) (Q15125 whole entry): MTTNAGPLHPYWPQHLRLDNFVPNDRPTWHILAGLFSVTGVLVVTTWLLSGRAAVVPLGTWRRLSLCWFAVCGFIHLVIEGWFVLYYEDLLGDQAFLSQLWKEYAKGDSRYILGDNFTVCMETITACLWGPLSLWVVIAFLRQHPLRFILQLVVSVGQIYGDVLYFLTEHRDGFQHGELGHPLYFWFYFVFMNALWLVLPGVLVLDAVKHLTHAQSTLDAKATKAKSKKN

SMILES	Ki [1]	EC50 [2]
CC(C)n1nc(C(F)(F)F)cc1[C@H]1CCC[C@@H](N2CCC3(C2)CS(=O)(=O)C3)C1 (single isomer, unassigned) [61B*]	23 nM	100 nM
CC(C)(C)n1nc(C(F)(F)F)cc1[C@H]1CC[C@H](N2CCC3(CC2)CS(=O)(=O)C3)CC1 [Compound 85A, 7-((1r,4r)-4-(1-(tert-Butyl)-3-(trifluoromethyl)-1H-pyrazol-5-yl)cyclohexyl)-2-thia-7-azaspiro[3.5]nonane 2,2-dioxide]	15 nM	8.1 nM
CC(C)[C@@H]1C[C@H](N2CCC3(C2)CS(=O)(=O)C3)CCN1c1ccc(C(F)(F)F)nc1 (stereo in doubt) [82D*, 6-((2S,4R)-2-isopropyl-1-(6-(trifluoromethyl)pyridin-3-yl)piperidin-4-yl)-2-thia-6-azaspiro[3.4]octane 2,2-dioxide]	100 nM	> 330 nM
CC(C)n1nc(C(F)(F)F)cc1[C@H]1CC[C@@H](N2CCC[C@]3(CCS(=O)(=O)C3)C2)CC1 (single isomer, unassigned) [91C*]	–	8.2 nM
O=S1(=O)CC2(CCN([C@H]3CC[C@@H](c4ccc(F)c(F)c4)CC3)C2)C1 [Compound 70B, 6-((1s,4s)-4-(3,4-difluorophenyl)cyclohexyl)-2-thia-6-azaspiro[3.4]octane 2,2-dioxide]	6.7 nM	19 nM
O=S1(=O)CC2(CCN([C@H]3CC[C@@H](c4cnc(C(F)(F)F)c(F)c4)CC3)C2)C1 [Compound 72B, 6-((1s,4s)-4-(5-fluoro-6-(trifluoromethyl)pyridin-3-yl)cyclohexyl)-2-thia-6-azaspiro[3.4]octane 2,2-dioxide]	26 nM	59 nM
O=S1(=O)CC2(CCN([C@H]3CC[C@@H](c4cncc(C(F)(F)F)c4)CC3)C2)C1 [Compound 63B, 6-((1s,4s)-4-(5-(trifluoromethyl)pyridin-3-yl)cyclohexyl)-2-thia-6-azaspiro[3.4]octane 2,2-dioxide]	66 nM	289 nM
O=S1(=O)CC2(CCN([C@H]3CC[C@H](c4ccc(C(F)(F)F)nc4)CC3)CC2)C1 [81A*, 7-((1r,4r)-4-(6-(Trifluoromethyl)pyridin-3-yl)cyclohexyl)-2-thia-7-azaspiro[3.5]nonane 2,2-dioxide]	85 nM	36 nM
O=S1(=O)CC2(CCN([C@H]3CCC[C@@H](c4ccc(C(F)(F)F)nc4)C3)C2)C1 (single isomer, unassigned) [54C*]	347 nM	> 330 nM
O=S1(=O)CC2(CCN([C@H]3CC[C@@H](c4ncc(C(F)(F)F)cc4Cl)CC3)C2)C1 [Compound 48B, 6-((1s,4s)-4-(3-chloro-5-(trifluoromethyl)pyridin-2-yl)cyclohexyl)-2-thia-6-azaspiro[3.4]octane 2,2-dioxide]	9.6 nM	14 nM
O=S1(=O)CC2(CCN([C@H]3CC[C@@H](c4ccnc(C(F)(F)F)c4)CC3)C2)C1 [Compound 60B, 6-((1s,4s)-4-(2-(trifluoromethyl)pyridin-4-yl)cyclohexyl)-2-thia-6-azaspiro[3.4]octane 2,2-dioxide]	21 nM	85 nM
O=S1(=O)CC[C@]2(CCCN([C@H]3CC[C@H](c4ccc(C(F)(F)F)cn4)CC3)C2)C1 (single isomer, unassigned) [68D*]	–	42 nM
CC(C)[C@H]1CC(N2CCC3(C2)CS(=O)(=O)C3)CCN1c1ccc(C(F)(F)F)nc1 (stereo in doubt) [82C*, 6-((2R,4S)-2-isopropyl-1-(6-(trifluoromethyl)pyridin-3-yl)piperidin-4-yl)-2-thia-6-azaspiro[3.4]octane 2,2-dioxide]	36 nM	> 330 nM
O=S1(=O)CC2(CCN([C@H]3CC[C@H](c4ccnc(C(F)(F)F)c4Cl)CC3)C2)C1 [Compound 92A, 6-((1r,4r)-4-(3-Chloro-2-(trifluoromethyl)pyridin-4-yl)cyclohexyl)-2-thia-6-azaspiro[3.4]octane 2,2-dioxide]	–	36 nM
O=S1(=O)CC2(CCN([C@H]3CC[C@H](c4ncc(C(F)(F)F)cc4F)CC3)CC2)C1 [Compound 80A, 7-((1r,4r)-4-(3-Fluoro-5-(trifluoromethyl)pyridin-2-yl)cyclohexyl)-2-thia-7-azaspiro[3.5] nonane 2,2-dioxide]	67 nM	11 nM
O=S1(=O)CC[C@]2(CCCN([C@H]3CC[C@H](c4cc(C(F)(F)F)nn4C4CC4)CC3)C2)C1 (single isomer, unassigned) [69D*]	50 nM	58 nM
CCc1nc(C(F)(F)F)ccc1[C@H]1CC[C@@H](N2CCC3(C2)CS(=O)(=O)C3)CC1 [Compound 64B, 6-((1s,4s)-4-(2-ethyl-6-(trifluoromethyl)pyridin-3-yl)cyclohexyl)-2-thia-6-azaspiro[3.4]octane 2,2-dioxide]	12 nM	3.2 nM
O=S1(=O)CC[C@@]2(CCCN([C@H]3CC[C@H](c4ccc(C(F)(F)F)nc4)CC3)C2)C1 (single isomer, unassigned) [71B*]	–	280 nM
O=S1(=O)CC[C@]2(CCCN([C@H]3CC[C@H](c4ccc(C(F)(F)F)nc4)CC3)C2)C1 (single isomer, unassigned) [71D*]	–	> 330 nM
O=S1(=O)CC2(CCN([C@H]3CC[C@H](c4ccnc(C(F)(F)F)c4)CC3)CC2)C1 [Compound 90B, 7-((1r,4r)-4-(2-(trifluoromethyl)pyridin-4-yl)cyclohexyl)-2-thia-7-azaspiro[3.5]nonane 2,2-dioxide]	1290 nM	42 nM
O=S1(=O)CC[C@]2(CCCN([C@H]3CC[C@@H](c4ccc(C(F)(F)F)cn4)CC3)C2)C1 (single isomer, unassigned) [68C*]	–	> 330 nM
O=S1(=O)CC[C@]2(CCCN([C@H]3CC[C@@H](c4ccc(C(F)(F)F)nc4)CC3)C2)C1 (single isomer, unassigned) [71C*]	–	62 nM
O=S1(=O)CC2(CCCN([C@H]3CC[C@H](c4ccnc(C(F)(F)F)c4)CC3)C2)C1 [Compound 93, 6-((1r,4r)-4-(2-(Trifluoromethyl)pyridin-4-yl)cyclohexyl)-2-thia-6-azaspiro[3.5]nonane 2,2-dioxide]	–	12 nM
O=S1(=O)CC[C@@]2(CCCN([C@H]3CC[C@@H](c4ccc(C(F)(F)F)cn4)CC3)C2)C1 (single isomer, unassigned) [68A*]	–	190 nM
CC(C)n1nc(C(F)(F)F)cc1[C@H]1CC[C@H](N2CCC[C@]3(CCS(=O)(=O)C3)C2)CC1 (single isomer, unassigned) [91D*]	–	50 nM
O=S1(=O)CC2(CCN([C@H]3CC[C@@H](c4ccnc(C(F)(F)F)c4Cl)CC3)C2)C1 [Compound 92B, 6-((1s,4s)-4-(3-chloro-2-(trifluoromethyl)pyridin-4-yl)cyclohexyl)-2-thia-6-azaspiro[3.4]octane 2,2-dioxide]	–	5.2 nM
